# Read-outs that look alike come from different tables or passages of the source.
# Experiments:
# [1] = tested on: human cancer cells (A549, U373, Hs683, T98G, MCF-7, SKMEL-28, PC-3, HT-29); test: MTT growth inhibition, mean over the eight human cancer cell lines; format: cell-based; conditions: read-out: IC50 (nM) Mean ± SEM
# In short: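 Culture: RPMI medium, 10% heat-inactivated fetal calf serum, 4 mM glutamine, antibiotics. Then compound exposure, MTT addition, and spectrophotometric reading of formazan. Growth inhibition is derived from OD of treated relative to control cells.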
# [2] = tested on: HCT-116 p53/wt and HCT-116 p53/ko colon carcinoma cells; test: MTT viability, p53 wild-type versus knock-out model; format: cell-based, human; conditions: 72 hours
# From the text: (§1) The following human cancer cell lines and their chemoresistant sublines were used in this study: the colon carcinoma cell line HCT-116 p53/wt and the p53 knock-out cell line HCT-116 p53/ko (generously donated by B. Vogelstein, Johns Hopkins University, Baltimore, MD, USA); the epidermal carcinoma-derived cell line KB-3-1 and the ABCB1-overexpressing subline KB-C-1 (generously donated by D.W. Shen, Bethesda, USA); the small cell lung carcinoma cell line GLC-4 and the ABCC1- and LRP-overexpressing subline GLC-4/ADR (from E.G. de Vries, Groningen, Netherlands); the ovarian carcinoma cell line A2780 and the cisplatin resistant subline A2780cis (purchased from Sigma-Aldrich); and the promyelocytic leukemia cell line HL60 and the mitoxantrone resistant subline HL60/mx (generously donated by G. Harker, Salt Lake City, USA). All cell lines were grown in RPMI 1640 supplemented with 10% fetal bovine serum with the exception of the HCT-116 cells, which were grown in McCoy’s medium with 10% serum.
# (§2) Figure 4 Impact of different MDR mechanisms on the cytotoxicity of hellebrigenin. […] Viability was determined using a 3-(4,5-dimethythiazol-2-yl)-2,5-diphenyltetrazolium bromide (MTT) colorimetric assay. […]
# [3] = target: T1, purified human α1β1 Na+/K+-ATPase (Homo sapiens, UniProt P05023); test: Inhibition of NaK activity of purified detergent-soluble complex (Pi release); format: biochemical; conditions: for selectivity in inhibition of NaK activity of all of the purified complexes: comparison of α1β1, α2β1, α3β1 purified complexes
# T1 construct: made in house; host or cells: Pichia pastoris strain SMD1165; detergent-soluble complex purified
# Experimental: The inhibition of NaK activity of the purified detergent-soluble α1β1, α2β1, and α3β1 complexes by cardiotonic steroids and an analysis of the inhibition data (Ki values) were also performed as previously described. The inhibitors were added to the recombinant enzyme (0.08–0.2 μg of protein) in 400 μl of reaction medium containing 130 mM NaCl, 5 mM KCl, 3 mM MgCl2, 25 mM histidine, pH 7.4, 1 mM EGTA, 0.01 mg/ml SOPS, 0.001 mg/ml cholesterol, and 0.005 mg/ml C12 E8 in 48-well plates. The reaction (37°C for 1 h) was started by the addition of 1mM ATP. Pi release was measured with a malachite green dye to detect the phosphor-molybdate (Pi Color Lock, Innova Biosciences). The percent inhibition V /V0 was calculated for each cardiac glycoside concentration, and Ki values were obtained by fitting the data to the function V /V0 = Ki /([CG] + Ki ) (using Kaleidagraph). V0 and V represent the control rate and rate of NaK-ATPase activity at particular concentrations of cardiac glycosides, [CG], respectively.
# Average KD or Ki values ± SEM for each isoform were calculated. Statistical significance was calculated by the unpaired Students t-test. P values <0.05 were considered significant.
# U373 GBM cells = conditions: 10 nM
# Experimental: Computer-assisted phase contrast microscopy (quantitative videomicroscopy) analyses were used to morphologically visualize the effects induced by hellebrin (data not shown) and hellebrigenin (Figure 5) in human U373 GBM cells.
# Figure 5 Computer-assisted phase-contrast microscopy (quantitative videomicroscopy) illustrations of human U373 glioblastoma cells treated with 10 nM hellebrigenin for 72 h. […] Cells were not starved during the experiments. The images provided here are representative images obtained from triplicates in each experimental condition.
# [4] = tested on: KB-3-1 and ABCB1-overexpressing KB-C-1 cells; test: MTT viability, MDR model; format: cell-based, human; conditions: 72 hours
# From the text: as §1, §2
# [5] = tested on: GLC-4 and ABCC1- and LRP-overexpressing GLC-4/ADR small cell lung carcinoma cells; test: MTT viability, MDR model; format: cell-based, human; conditions: 72 hours
# From the text: as §1, §2
SMILES,"IC50 ([1]; Homo sapiens, 72 h) [nM]",in vitro growth inhibitory activity in p53 wild-type versus p53KO HCT-116 cells [2],Ki [3] [µM],selectivity in inhibition of NaK activity of all of the purified complexes [3],"IC50 ([1]; mean over eight human cancer cell lines, three days of culture) [nM]",U373 GBM cells died (U373 GBM cells; 72 h of treatment),cytotoxic versus cytostatic nature (morphological analyses) (U373 GBM cells; up to 72 h),"Ki ([3]; 37°C, 1 h, 1 mM ATP, read-out: Ki for inhibition of NaK activity of purified human α1β1) [µM]",sensitivity of KB-C-1 compared to parental cell line [4],sensitivity of GLC4/ADR compared to parental cell line [5]
C[C@@H]1O[C@@H](O[C@H]2CC[C@]3(C=O)[C@H]4CC[C@]5(C)[C@@H](c6ccc(=O)oc6)CC[C@]5(O)[C@@H]4CC[C@]3(O)C2)[C@H](O)[C@H](O)[C@H]1O[C@@H]1O[C@H](CO)[C@@H](O)[C@H](O)[C@H]1O [Hellebrin],28 ± 7,similar,0.103 ± 0.007,no selectivity,–,–,–,–,–,–
C[C@]12CC[C@H]3[C@@H](CC[C@]4(O)C[C@@H](O)CC[C@]34C=O)[C@@]1(O)CC[C@@H]2c1ccc(=O)oc1 [Hellebrigenin],–,similar,–,no selectivity,16 ± 5,approximately 50%,cytotoxic compound and not a cytostatic one,0.046 ± 0.006,equally sensitive,equally sensitive

# From paper PMC3722118, “Hellebrin and its aglycone form hellebrigenin display similar in vitro growth inhibitory effects in cancer cells and binding profiles to the alpha subunits of the Na^+/K^+-ATPase” (Molecular Cancer, 2013)
